From PMC10999543, “Identification of kinase modulators as host-directed therapeutics against intracellular methicillin-resistant Staphylococcus aureus” (Frontiers in Cellular and Infection Microbiology, 2024)
Read-outs that look alike come from different tables or passages of the source.

Columns and labels:
intracellular MRSA = format: cell-based, Staphylococcus aureus; details: for %GFP+ rep 1 / z-scoreMRSA+ rep 1: replicate 1; for %GFP+ rep 2 / z-scoreMRSA+ rep 2: replicate 2; for %GFP+ rep 3 / z-scoreMRSA+ rep 3: replicate 3; for z-scoreMRSA+ mean: mean of 3 replicates
Procedure, shortened: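 HeLa, MRSA-GFP at MOI ~6.8, 1 h infection; gentamicin 30 µg/ml for 15 min; inhibitor plus gentamicin 5 µg/ml overnight, 37°C/5% CO2; triplicate plates; FACS %GFP+ and cell count; hit = z ≤ -2 MRSA+, z ≥ -3 count.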

HeLa cells = experiment: Compound screen by flow cytometry: HeLa cell count as surrogate readout of cell viability (z-scoreHeLa); format: cell-based, human; details: for cell count rep 1 / z-scoreHeLa rep 1: replicate 1; for cell count rep 2 / z-scoreHeLa rep 2: replicate 2; for cell count rep 3 / z-scoreHeLa rep 3: replicate 3; for z-scoreHeLa mean: mean of 3 replicates
Procedure, shortened: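 HeLa cells were infected with GFP-MRSA (mean MOI 6.8 ± 4.6) for 1 h, and extracellular bacteria were killed with 30 µg/ml gentamicin. Cells were then incubated overnight with kinase inhibitors in 5 µg/ml gentamicin, in triplicate against DMSO controls. Flow-cytometric cell count served as a viability surrogate, expressed as a plate z-score.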

[1] = PKIS compound screen raw data, MRSA-infected HeLa cells
[2] = Yes/No: effect without cell death
[3] = compound screen, MRSA-infected HeLa cells
[4] = PKIS compound screen raw data, HeLa cell count
[5] = compound screen, HeLa cell count
[6] = PKIS compound screen, Yes/No call
[7] = PKIS compound screen, Yes/No call (effect without cell death)
[8] = PKIS compounds raw data, MRSA-infected HeLa cells
[9] = PKIS compounds raw data, HeLa cell count

Compound | %GFP+ rep 1 (intracellular MRSA; [1]) | %GFP+ rep 2 (intracellular MRSA; [1]) | %GFP+ rep 3 (intracellular MRSA; [1]) | effect (intracellular MRSA; Yes/No call from z-scoreMRSA+) | hit (intracellular MRSA; [2]) | z-scoreMRSA+ mean (intracellular MRSA; [3]) | z-scoreMRSA+ rep 1 (intracellular MRSA; [3]) | z-scoreMRSA+ rep 2 (intracellular MRSA; [3]) | z-scoreMRSA+ rep 3 (intracellular MRSA; [3]) | cell count rep 1 (HeLa cells; [4]) | cell count rep 2 (HeLa cells; [4]) | cell count rep 3 (HeLa cells; [4]) | cell death (HeLa cells; Yes/No call from z-scoreHeLa) | z-scoreHeLa mean (HeLa cells; [5]) | z-scoreHeLa rep 1 (HeLa cells; [5]) | z-scoreHeLa rep 2 (HeLa cells; [5]) | z-scoreHeLa rep 3 (HeLa cells; [5]) | %GFP+ rep 1 (intracellular MRSA; [8]) | %GFP+ rep 2 (intracellular MRSA; [8]) | %GFP+ rep 3 (intracellular MRSA; [8]) | other results
Cc1ccc(C(=O)Nc2ccc(Nc3ccnc4cc(-c5ccccn5)ccc34)cc2O)cc1 [GW440146A] | 19.0% | 18.0% | 19.2% | No | No | -1.16 | -1.46 | -1.12 | -0.90 | 4799 | 4726 | 6030 | No | 0.38 | 0.32 | 0.33 | 0.50 | – | – | – | –
Cn1cc(C=C2C(=O)Nc3cccnc32)c2ccccc21 [GW441756X] | – | – | – | – | – | – | – | – | – | – | – | – | – | – | – | – | – | 12.3% | 12.1% | 11.5% | effect (intracellular MRSA; [6]): No; hit (intracellular MRSA; [7]): No; z-scoreMRSA+ mean (intracellular MRSA; PKIS compound screen): -0.68; z-scoreMRSA+ rep 1 (intracellular MRSA; PKIS compound screen): -0.28; z-scoreMRSA+ rep 2 (intracellular MRSA; PKIS compound screen): -0.47; z-scoreMRSA+ rep 3 (intracellular MRSA; PKIS compound screen): -1.30; cell death (HeLa cells; [6]): No; z-scoreHeLa mean (HeLa cells; PKIS compound screen): 0.63; z-scoreHeLa rep 1 (HeLa cells; PKIS compound screen): 0.06; z-scoreHeLa rep 2 (HeLa cells; PKIS compound screen): 0.32; z-scoreHeLa rep 3 (HeLa cells; PKIS compound screen): 1.49; cell count rep 1 (HeLa cells; [9]): 4844; cell count rep 2 (HeLa cells; [9]): 4695; cell count rep 3 (HeLa cells; [9]): 10080
COc1ccccc1-c1cc(/C=C2\C(=O)Nc3ncc(Br)cc32)cc(Br)c1O [GW442130X] | – | – | – | No | No | 0.33 | 0.55 | 0.97 | -0.53 | – | – | – | No | -0.27 | -1.02 | 0.35 | -0.14 | 14.9% | 16.4% | 14.1% | cell count rep 1 (HeLa cells; [9]): 3648; cell count rep 2 (HeLa cells; [9]): 4731; cell count rep 3 (HeLa cells; [9]): 6669
CS(=O)(=O)CCNCc1nc(-c2ccc3ncnc(Nc4ccc(F)c(Cl)c4)c3c2)cs1 [GW461104A] | 24.3% | 20.7% | 21.4% | No | No | -0.31 | -0.23 | -0.46 | -0.24 | 1413 | 957 | 819 | No | -2.50 | -2.12 | -2.57 | -2.79 | – | – | – | –
Cc1c(O)cccc1Nc1ccnc2ccc(C(F)(F)F)cc12 [GW466413A] | 22.3% | 22.8% | 19.9% | No | No | -0.45 | -0.69 | 0.0454 | -0.69 | 3244 | 2982 | 4313 | No | -0.80 | -0.80 | -1.02 | -0.58 | – | – | – | –
Cc1ccc(C(=O)Nc2ccc(Nc3ccnc4cc(-c5nccs5)ccc34)cc2O)cc1 [GW494702A] | – | – | – | – | – | – | – | – | – | – | – | – | – | – | – | – | – | 21.0% | 19.7% | 18.9% | effect (intracellular MRSA; [6]): No; hit (intracellular MRSA; [7]): No; z-scoreMRSA+ mean (intracellular MRSA; PKIS compound screen): -1.32; z-scoreMRSA+ rep 1 (intracellular MRSA; PKIS compound screen): -1.18; z-scoreMRSA+ rep 2 (intracellular MRSA; PKIS compound screen): -1.22; z-scoreMRSA+ rep 3 (intracellular MRSA; PKIS compound screen): -1.55; cell death (HeLa cells; [6]): No; z-scoreHeLa mean (HeLa cells; PKIS compound screen): 0.98; z-scoreHeLa rep 1 (HeLa cells; PKIS compound screen): 0.32; z-scoreHeLa rep 2 (HeLa cells; PKIS compound screen): 1.13; z-scoreHeLa rep 3 (HeLa cells; PKIS compound screen): 1.50; cell count rep 1 (HeLa cells; [9]): 6577; cell count rep 2 (HeLa cells; [9]): 7707; cell count rep 3 (HeLa cells; [9]): 7965
